Laboratory results published in patent US20220105150A1, “AMPHIPATHIC ALPHA-HELICAL ANTIMICROBIAL PEPTIDES TREAT INFECTIONS BY GRAM-NEGATIVE PATHOGENS” (priority 2019, published 2022).
Values after ≈ are worked out from the molar mass of the structure shown. Square brackets hold non-standard residues; d marks the D form. Peptide text beside a SMILES is read from it. Dab = NCC[C@H](N)C(=O)O

test system: Acinetobacter baumannii strains resistant to Polymyxin B and Colistin; details: strains resistant to Polymyxin B and Colistin, 24 h
Description: The coupling procedure used 5 equivalents of Fmoc-D-amino acid or Fmoc-L-amino acid and HCTU (O-(1H-6-chlorobenzotriazole-1-yl)-1,1,3,3-tetramethyluronium hexafluorophosphate) and 6-Cl-HOBt (1-hydroxy-6-chloro-benztriazole) at 4.5 equivalents in DMF (Fisher Scientific, Denver, Colo.) and N-diisopropylethylamine (DIPEA) 10 equivalents (Oakwood Products, Inc., Estill, S.C.) in N-methyl-2-pyrrolidinone (NMP) (Fisher Scientific, Denver, Colo.) with the first and second couplings at room temperature for 30 min each. The deprotection procedure (removal of Fmoc protecting group) was carried out by treatment of the resin with 0.1 M HOBt (1-hydroxybenzotriazole) in DMF with 20% piperidine for 30 min. […] The resin was removed by filtration and peptide was precipitated with ice-cooled ethyl ether on ice for 15 min. Ether was decanted, the peptide was washed twice with ether and redissolved in acetonitrile/water (1:1, with 0.2% TFA) and the solution lyophilized to obtain the crude peptide. • Analytical and Preparative Purification by Reversed-Phase Chromatography: Analytical RP-HPLC: Column, Luna C18 (2), 250×4.6 mm I.D., 5 μm particle size, 100 Å pore size from Phenomenex (Torrance, Calif.). Run conditions: linear AB gradient (1% acetonitrile/min, starting from 2% acetonitrile) at a flow-rate of 1 ml/min, where eluent A is 0.2% aq. TFA and eluent B is 0.18% TFA in acetonitrile; temperature, 30° C. Preparative RP-HPLC: Peptides were dissolved in 0.2% aq. TFA containing 2% acetonitrile to a final concentration of 10 mg/ml. Following filtration through a 0.45 μm Millipore filter and subsequently through a 0.22 μm filter, the peptide solutions were loaded onto the column via multiple 20-ml injections into a 20-ml injection loop at a flow-rate of 10 ml/min. Column, Luna C18 (2), 250×30 mm I.D., 5 um particle size, 100 Å pore size from Phenomenex. Run conditions: 2% acetonitrile/min gradient up to an acetonitrile concentration 10% below that required to elute the peptide during analytical RP-HPLC, then shallow gradient elution (0.05% or 0.1% acetonitrile/min depending on the complexity of impurities near the product of interest on the analytical run of the crude peptide) at a flow-rate of 10 ml/min (same eluents as shown above for analytical RP-HPLC); at room temperature. • Temperature Profiling of Peptides on Reversed-phase HPLC to Measure Dimerization and Oligomerization: Purified peptides were analyzed on an Agilent 1200 series liquid chromatograph for temperature profiling using a Zorbax 300 SB-C8 column (150 mm×2.1 mm I.D.; 5 μm particle size, 300 Å pore size) from Agilent Technologies. […] Temperature profiling was carried out on peptide mixtures run at each temperature in 2° C. increments from 5° C. to 41° C. and 10° C. increments from 5° C. to 75° C. Twenty minutes was allowed between runs for temperature equilibration. • Characterization of Helical Structure: The mean residue molar ellipticities of peptides were determined by circular dichroism (CD) spectroscopy, using a Jasco J-815 spectropolarimeter (Jasco Inc. Easton, Md., USA) at 5° C. under KP buffer (50 mM NaH2PO4/Na2HPO4/100 mM KCl, pH 7.0) as well as in the presence of an α-helix inducing solvent, 2,2,2-trifluoroethanol, TFE, (50 mM NaH2PO4/Na2HPO4/100 mM KCl, pH 7.0 buffer/50% TFE). A 10-fold dilution of an approximately 500 μM stock solution of the peptide analogs was loaded into a 0.1 cm quartz cell and its ellipticity scanned from 195 to 250 nm.

Row | SMILES | MIC MB9941 [µM] | MIC MB9949 [µM] | MIC MB9951 [µM] | MIC MB9952 [µM] | MIC MB9953 [µM] | MIC MB9955 [µM] | MIC MB9963 [µM]
1 | CC(=O)N[C@H](CCCCN)C(=O)N[C@H](CC(C)C)C(=O)N[C@H](CCCN)C(=O)N[C@H](CO)C(=O)N[C@H](CC(C)C)C(=O)N[C@H](CC(C)C)C(=O)N[C@H](CCCN)C(=O)N[C@@H](C(=O)N[C@H](CC(C)C)C(=O)N[C@H](CO)C(=O)N[C@H](CCCN)C(=O)N[C@H](C)C(=O)N[C@H](CCCCN)C(=O)N[C@H](C)C(=O)N[C@H](C)C(=O)N[C@H](CCCCN)C(=O)N[C@H](CC(C)C)C(=O)N[C@H](CCCN)C(=O)N[C@@H](C(=O)N[C@H](CC(C)C)C(=O)N[C@H](CC(C)C)C(=O)N[C@H](CCCN)C(=O)N[C@H](C)C(=O)N[C@H](CC(C)C)C(=O)N[C@H](CO)C(=O)N[C@H](CCCN)C(N)=O)[C@H](C)O)[C@H](C)O [D85(Lys^1-6Orn-1), Ac-KL(Orn)SLL(Orn)TLS(Orn)AKAAKL(Orn)TLL(Orn)ALS(Orn)-amide] | 0.7 (≈ 1.95 µg/mL) | 0.7 (≈ 1.95 µg/mL) | 0.7 (≈ 1.95 µg/mL) | 0.4 (≈ 1.11 µg/mL) | 0.4 (≈ 1.11 µg/mL) | 0.4 (≈ 1.11 µg/mL) | 0.4 (≈ 1.11 µg/mL)
2 | CC(=O)N[C@H](CCCCN)C(=O)N[C@H](CC(C)C)C(=O)N[C@H](CCCNC(=N)N)C(=O)N[C@H](CO)C(=O)N[C@H](CC(C)C)C(=O)N[C@H](CC(C)C)C(=O)N[C@H](CCCNC(=N)N)C(=O)N[C@@H](C(=O)N[C@H](CC(C)C)C(=O)N[C@H](CO)C(=O)N[C@H](CCCNC(=N)N)C(=O)N[C@H](C)C(=O)N[C@H](CCCCN)C(=O)N[C@H](C)C(=O)N[C@H](C)C(=O)N[C@H](CCCCN)C(=O)N[C@H](CC(C)C)C(=O)N[C@H](CCCNC(=N)N)C(=O)N[C@@H](C(=O)N[C@H](CC(C)C)C(=O)N[C@H](CC(C)C)C(=O)N[C@H](CCCNC(=N)N)C(=O)N[C@H](C)C(=O)N[C@H](CC(C)C)C(=O)N[C@H](CO)C(=O)N[C@H](CCCNC(=N)N)C(N)=O)[C@H](C)O)[C@H](C)O [D87(Lys^1-6Arg-1), Ac-KL(Arg)SLL(Arg)TLS(Arg)AKAAKL(Arg)TLL(Arg)ALS(Arg)-amide] | 1.3 (≈ 3.94 µg/mL) | 1.3 (≈ 3.94 µg/mL) | 0.7 (≈ 2.12 µg/mL) | 0.7 (≈ 2.12 µg/mL) | 0.7 (≈ 2.12 µg/mL) | 0.7 (≈ 2.12 µg/mL) | 0.7 (≈ 2.12 µg/mL)
3 | CC(=O)N[C@H](CCCCN)C(=O)N[C@H](CC(C)C)C(=O)N[C@H](CCCCN)C(=O)N[C@H](CO)C(=O)N[C@H](CC(C)C)C(=O)N[C@H](CC(C)C)C(=O)N[C@H](CCCCN)C(=O)N[C@@H](C(=O)N[C@H](CC(C)C)C(=O)N[C@H](CO)C(=O)N[C@H](C)C(=O)N[C@H](C)C(=O)N[C@H](CCCCN)C(=O)N[C@H](CCCCN)C(=O)N[C@H](CCCCN)C(=O)N[C@H](CCCCN)C(=O)N[C@H](CC(C)C)C(=O)N[C@H](C)C(=O)N[C@@H](C(=O)N[C@H](CC(C)C)C(=O)N[C@H](CC(C)C)C(=O)N[C@H](CCCCN)C(=O)N[C@H](C)C(=O)N[C@H](CC(C)C)C(=O)N[C@H](CO)C(=O)N[C@H](CCCCN)C(N)=O)[C@H](C)O)[C@H](C)O [D88(Lys^1-6 Lys-2), Ac-KL(Lys)SLL(Lys)TLSAAK(Lys)(Lys)KLATLL(Lys)ALS(Lys)-amide] (Ac-[dK][dL][dK][dS][dL][dL][dK][dT][dL][dS][dA][dA][dK][dK][dK][dK][dL][dA][dT][dL][dL][dK][dA][dL][dS][dK]-NH2) | 0.7 (≈ 2.01 µg/mL) | 0.7 (≈ 2.01 µg/mL) | 0.3 (≈ 0.86 µg/mL) | 0.3 (≈ 0.86 µg/mL) | 0.3 (≈ 0.86 µg/mL) | 0.3 (≈ 0.86 µg/mL) | 0.4 (≈ 1.15 µg/mL)
4 | CC(=O)N[C@H](CCCCN)C(=O)N[C@H](CC(C)C)C(=O)N[C@@H](CCN)C(=O)N[C@H](CO)C(=O)N[C@H](CC(C)C)C(=O)N[C@H](CC(C)C)C(=O)N[C@@H](CCN)C(=O)N[C@@H](C(=O)N[C@H](CC(C)C)C(=O)N[C@H](CO)C(=O)N[C@H](C)C(=O)N[C@H](C)C(=O)N[C@H](CCCCN)C(=O)N[C@@H](CCN)C(=O)N[C@@H](CCN)C(=O)N[C@H](CCCCN)C(=O)N[C@H](CC(C)C)C(=O)N[C@H](C)C(=O)N[C@@H](C(=O)N[C@H](CC(C)C)C(=O)N[C@H](CC(C)C)C(=O)N[C@@H](CCN)C(=O)N[C@H](C)C(=O)N[C@H](CC(C)C)C(=O)N[C@H](CO)C(=O)N[C@@H](CCN)C(N)=O)[C@H](C)O)[C@H](C)O [D89(Lys^1-6 Dab-2), Ac-KL(L-Dab)SLL(L-Dab)TLSAAK(L-Dab)(L-Dab)KLATLL(L-Dab)ALS(L-Dab)-amide] (Ac-[dK][dL][Dab][dS][dL][dL][Dab][dT][dL][dS][dA][dA][dK][Dab][Dab][dK][dL][dA][dT][dL][dL][Dab][dA][dL][dS][Dab]-NH2) | 0.7 (≈ 1.89 µg/mL) | 0.7 (≈ 1.89 µg/mL) | 0.7 (≈ 1.89 µg/mL) | 0.7 (≈ 1.89 µg/mL) | 0.7 (≈ 1.89 µg/mL) | 0.7 (≈ 1.89 µg/mL) | 0.7 (≈ 1.89 µg/mL)
5 | CC(=O)N[C@H](CCCCN)C(=O)N[C@H](CC(C)C)C(=O)N[C@H](CCCCN)C(=O)N[C@H](CO)C(=O)N[C@H](CC(C)C)C(=O)N[C@H](CC(C)C)C(=O)N[C@H](CCCCN)C(=O)N[C@@H](C(=O)N[C@H](CC(C)C)C(=O)N[C@H](CO)C(=O)N[C@H](C)C(=O)N[C@H](C)C(=O)N[C@H](CCCCN)C(=O)N[C@H](CCCCN)C(=O)N[C@H](CCCCN)C(=O)N[C@H](CCCCN)C(=O)N[C@H](CC(C)C)C(=O)N[C@H](C)C(=O)N[C@@H](C(=O)N[C@H](CC(C)C)C(=O)N[C@H](CC(C)C)C(=O)N[C@H](CCCCN)C(=O)N[C@H](C)C(=O)N[C@H](CC(C)C)C(=O)N[C@H](CO)C(=O)N[C@H](CO)C(N)=O)[C@H](C)O)[C@H](C)O [D103(Lys^1Ser^26-5 Lys-2), Ac-KL(Lys)SLL(Lys)TLSAAK(Lys)(Lys)KLATLL(Lys)ALS(Ser)-amide] (Ac-[dK][dL][dK][dS][dL][dL][dK][dT][dL][dS][dA][dA][dK][dK][dK][dK][dL][dA][dT][dL][dL][dK][dA][dL][dS][dS]-NH2) | 0.7 (≈ 1.98 µg/mL) | 0.7 (≈ 1.98 µg/mL) | 0.7 (≈ 1.98 µg/mL) | 0.7 (≈ 1.98 µg/mL) | 0.7 (≈ 1.98 µg/mL) | 0.7 (≈ 1.98 µg/mL) | 0.7 (≈ 1.98 µg/mL)
6 | CC(=O)N[C@H](CCCCN)C(=O)N[C@H](CC(C)C)C(=O)N[C@@H](CCN)C(=O)N[C@H](CO)C(=O)N[C@H](CC(C)C)C(=O)N[C@H](CC(C)C)C(=O)N[C@@H](CCN)C(=O)N[C@@H](C(=O)N[C@H](CC(C)C)C(=O)N[C@H](CO)C(=O)N[C@H](C)C(=O)N[C@H](C)C(=O)N[C@H](CCCCN)C(=O)N[C@@H](CCN)C(=O)N[C@@H](CCN)C(=O)N[C@H](CCCCN)C(=O)N[C@H](CC(C)C)C(=O)N[C@H](C)C(=O)N[C@@H](C(=O)N[C@H](CC(C)C)C(=O)N[C@H](CC(C)C)C(=O)N[C@@H](CCN)C(=O)N[C@H](C)C(=O)N[C@H](CC(C)C)C(=O)N[C@H](CO)C(=O)N[C@H](CO)C(N)=O)[C@H](C)O)[C@H](C)O [D104(Lys^1Ser^26-5 Dab-2), Ac-KL(L-Dab)SLL(L-Dab)TLSAAK(L-Dab)(L-Dab)KLATLL(L-Dab)ALS(Ser)-amide] (Ac-[dK][dL][Dab][dS][dL][dL][Dab][dT][dL][dS][dA][dA][dK][Dab][Dab][dK][dL][dA][dT][dL][dL][Dab][dA][dL][dS][dS]-NH2) | 0.7 (≈ 1.88 µg/mL) | 0.7 (≈ 1.88 µg/mL) | 0.7 (≈ 1.88 µg/mL) | 0.7 (≈ 1.88 µg/mL) | 1.5 (≈ 4.03 µg/mL) | 0.7 (≈ 1.88 µg/mL) | 0.7 (≈ 1.88 µg/mL)
